# Read-outs that look alike come from different tables or passages of the source.
# How the values were obtained:
# A. baumannii ATCC 19606 = experiment: MIC broth microdilution (NCCLS); type: cell-based, Acinetobacter baumannii; details: Acinetobacter baumannii, ATCC19606, read-out: MIC
# Method: (§1) Minimal Inhibitory Concentration (MIC) Determination. Bacteria (primary strain panel, TABLE 1). Susceptibility tests were performed following the recommendations from the National Committee for Clinical Standards (NCCLS). The MICs were determined by a broth microdilution technique using a final volume of 100 μl of cation-adjusted Mueller Hinton Broth (MHBCA) and a bacterial inoculum of 10^5-10^6 Colony Forming Units (CFU)/ml. The inocula were verified and precisely determined by applying 10-μl drops of 10-fold dilutions onto Triptic Soy Agar plates. The CFU were counted after an incubation of 24 h at 35° C. Any experiment showing an inoculum that was more or less than 10^5-10^6 CFU/ml was rejected. Control antibiotics and test compounds were prepared at a concentration equivalent to 2-fold the highest desired final concentration. Compounds were then diluted directly in the 96-well microtiter plates by serial 2-fold dilutions using a multichannel pipette. Microtiter plates were incubated during 24 h at 35° C. and growth was recorded by using a microtiterplate reader at 650 nm as well as by visual observation. The MIC was defined as the lowest concentration of compound yielding no visible growth. […] Fastidious bacteria. The medium used for Listeria monocytogenes, Neisseria meningitidis, and Campylobacter jejuni was MHBCA containing 2% laked horse blood. The medium used for Haemophilus influenzae and Branhamella (Moraxella) catarrhalis was HTM as recommended by the NCCLS. Cultures of these fastidious bacteria were incubated at 35° C. in a 5% CO2 atmosphere. […] The medium used for Bacteroides fragilis was Wilkins Chalgren broth and growth was allowed under an anaerobic atmosphere at 35° C. for 48 hours.
# [1] = tested on: S. epidermidis ATCC 12228; experiment: MIC broth microdilution (NCCLS); type: cell-based, Staphylococcus epidermidis; details: Staphylococcus epidermidis, ATCC12228; S. epidermidis ATCC 12228; read-out: MIC
# Method: as §1
# S. aureus ATCC 29213 = experiment: MIC broth microdilution (NCCLS); type: cell-based, Staphylococcus aureus; details: Staphylococcus aureus, ATCC29213; S. aureus ATCC 29213; read-out: MIC
# Method: as §1
# M. smegmatis ATCC 19420 = experiment: MIC broth microdilution (NCCLS), fastidious bacteria; type: cell-based, Mycobacterium smegmatis; details: Mycolicibacterium smegmatis, ATCC19420, read after 48 hours
# Method: as §1
# [2] = tested on: S. saprophyticus ATCC 15305; experiment: MIC broth microdilution (NCCLS); type: cell-based, Staphylococcus saprophyticus; details: Staphylococcus saprophyticus, ATCC15305; S. saprophyticus ATCC 15305; read-out: MIC
# Method: as §1
# E. faecium VanA = experiment: MIC broth microdilution, antibiotic resistant strain panel; type: cell-based; details: Enterococcus faecium
# Method: as §1
# Finally, compounds were also tested against populations of various clinical strains (antibiotic resistant strain panel, TABLE 1).
# S. aureus MRSA COL = experiment: MIC broth microdilution (NCCLS); type: cell-based, Staphylococcus aureus; details: Staphylococcus aureus, MRSA
# Method: as §1, with “hours. […]” for “hours.”
# E. faecalis ATCC 29212 = experiment: MIC broth microdilution (NCCLS); type: cell-based, Enterococcus faecalis; details: Enterococcus faecalis, ATCC29212; E. faecalis ATCC 29212; read-out: MIC
# Method: as §1
# [3] = tested on: Y. enterocolytica ATCC 23715; experiment: MIC broth microdilution (NCCLS); type: cell-based, Yersinia enterocolytica; details: Yersinia, ATCC23715, read-out: MIC
# Method: as §1
# E. coli ATCC 25922 = experiment: MIC broth microdilution (NCCLS); type: cell-based, Escherichia coli; details: Escherichia coli, ATCC25922, E. coli ATCC 25922 (Reference); read-out: MIC
# Method: as §1
# E. faecium ATCC 35667 = experiment: MIC broth microdilution (NCCLS); type: cell-based, Enterococcus faecium; details: Enterococcus faecium, ATCC35667, E. faecium ATCC 35667; read-out: MIC
# Method: as §1
# [4] = tested on: L. monocytogenes ATCC 13932; experiment: MIC broth microdilution (NCCLS), fastidious bacteria; type: cell-based; details: Listeria monocytogenes, ATCC13932, MHBCA with 2% laked horse blood, 5% CO2
# Method: as §1
# B. catarrhalis ATCC 8176 [5] = experiment: as above; type: cell-based, Branhamella (Moraxella) catarrhalis; details: Moraxella catarrhalis, ATCC8176, HTM, 5% CO2
# Method: as §1
# H. influenzae ATCC 49247 [6] = experiment: Minimal Bactericidal Concentration (MBC); type: cell-based; details: Haemophilus influenzae, ATCC49247, 99.9% killing
# Method: (§2) Minimal Bactericidal Concentration (MBC). After the microtiter plates were read for the determination of the MIC, a 10-μl sample of each clear well (at least 5 wells without visible growth) was applied onto TSA plates for viable counts determination.
# (§3) Petri dishes were incubated at 35° C. for exactly 24 h and bacterial colonies were counted.
# H. influenzae ATCC 49766 [7] = experiment: Minimal Bactericidal Concentration (MBC); type: cell-based; details: Haemophilus influenzae, ATCC49766, 99.9% killing
# Method: as §2, §3
# S. typhimurium ATCC14028 = experiment: MIC broth microdilution (NCCLS); type: cell-based, Salmonella typhimurium; details: Salmonella enterica; S. typhimurium ATCC14028; read-out: MIC
# Method: as §1
# B. catarrhalis ATCC 8176 [8] = experiment: Minimal Bactericidal Concentration (MBC); type: cell-based, Branhamella (Moraxella) catarrhalis; details: Moraxella catarrhalis, ATCC8176, 99.9% killing
# Method: as §2, §3
# H. influenzae ATCC 49247 [9] = experiment: MIC broth microdilution (NCCLS), fastidious bacteria; type: cell-based; details: Haemophilus influenzae, ATCC49247, HTM, 5% CO2
# Method: as §1
# H. influenzae ATCC 49766 [10] = experiment: as above; type: cell-based; details: Haemophilus influenzae, ATCC49766, HTM, 5% CO2
# Method: as §1
SMILES,MIC (A. baumannii ATCC 19606),MIC [1],MIC (S. aureus ATCC 29213),MIC [2],MIC (E. faecalis ATCC 29212),MIC [3],MIC (E. coli ATCC 25922),MIC (E. faecium ATCC 35667),further results
CO[C@H]1/C=C/O[C@@]2(C)Oc3c(C)c(O)c4c(O)c(c(/C=N/N5CCN(C)CC5)c(O)c4c3C2=O)NC(=O)/C(C)=C\C=C\[C@H](C)[C@H](O)[C@@H](C)[C@@H](O)[C@@H](C)[C@H](OC(C)=O)[C@@H]1C [Rifampicin],4 µg/mL,0.004 to 0.008 µg/mL,0.008 to 0.015 µg/mL,0.03 µg/mL,0.5 to 1 µg/mL,8 µg/mL,8 µg/mL,32 µg/mL,"MIC (M. smegmatis ATCC 19420): 8 µg/mL; MIC (E. faecium VanA): > 128 µg/mL; MIC (S. aureus MRSA COL; S. aureus MRSA COL, read-out: MIC): 0.008 to 0.015 µg/mL; MIC [4]: 0.06 µg/mL"
CO/N=C(\C(=O)N[C@@H]1C(=O)N2C(C(=O)O)=C(COC(C)=O)CS[C@H]12)c1csc(N)n1 [Cefotaxime],16 µg/mL,0.5 to 1 µg/mL,1 to 2 µg/mL,8 µg/mL,2 to 8 µg/mL,> 2 µg/mL,0.06 to 0.12 µg/mL,16 µg/mL,"MIC (B. catarrhalis ATCC 8176 [5]): 0.03 µg/mL; MBC (H. influenzae ATCC 49247 [6]): 0.12 µg/mL; MBC (H. influenzae ATCC 49766 [7]): 0.008 µg/mL; MIC (S. typhimurium ATCC14028): > 2 µg/mL; MIC (E. faecium VanA; multi-resistant E. faecium VanA, read-out: MIC): > 128 µg/mL; MIC (S. aureus MRSA COL): 512 µg/mL; MBC (B. catarrhalis ATCC 8176 [8]): 0.06 µg/mL; MIC (H. influenzae ATCC 49247 [9]): 0.12 µg/mL; MIC (H. influenzae ATCC 49766 [10]): 0.008 µg/mL"
